Measured values taken from patent publication US20080108706A1, “Chemical resection of pancreas” (priority 1999, published 2008).

What was measured:
Format in all cases: in vivo, beagles
[1] = system: pancreatic native polyamine pools; assay: Tissue drug and native polyamine levels (pancreas, liver) in treated dogs
Excerpt: (§1) The two dogs (#490 and 494) were fed a prescription canned and dry dog food and were supplemented with Viokase, a pancreatic enzyme preparation, by mixing three tablets with food or by oral administration immediately before each feeding. The dogs were maintained on this regimen for approximately three weeks. During this time, their weight and blood chemistries were closely monitored. The Viokase supplementation was then stopped and the same parameters were again evaluated. One week after the Viokase administration had ceased, the animals were euthanized and tissues were taken for histology and for the determination of tissue polyamine levels.
As the pancreatic insufficiency side-effect that was observed after the administration of the (R,R)—(HO)2DEHSPM to the beagles may have been related to the (R,R)-chirality of the molecule, the (S,S)-enantiomer was synthesized and was compared in a head-to-head fashion with the (R,R)-enantiomer. To perform this experiment, five male beagles approximately 6-8 months of age were obtained from Harlan Sprague Dawley. There were provided with food and water ad libitum and were allowed to acclimate to their new surroundings for two weeks. The animals were weighed prior to starting drug administration and were weighed once per week during the drug dosing period. A CBC and chemistry panel and a Holter monitor were performed once per week. In addition to the usual tests, additional pancreatic function-specific tests were also performed. These additional evaluations included a fecal trypsin test, examination of the feces for fecal fat and serum trypsin-like immunoreactivity determinations. It was hoped that these signs of pancreatic insufficiency would only appear in the animals given the (R,R)-enantiomer and would not be observed in the dogs that were given the (S,S)-molecule. The pancreatic insufficiency may not become evident until approximately 7-8 weeks post-drug. At the conclusion of the experiment, all of the animals were sacrificed and the histology and tissue polyamine levels were determined.
• 1. Dogs #468 and 500 were given (R,R)—(HO)2DEHSPM subcutaneously twice daily for 13 days. • 2. They were fed Purina Dog Chow ad libitum and given free access to water. • 3. Polyamine levels in the pancreas were also analyzed at several time points post-drug. • 4. At the start of the experiment, dog #468 weighed 14.4 kg and dog #500 weighed 12.8 kg. The latter animal's weight never exceeded 13.2 kg. At the end of the drug dosing period, dog #468 weighed 13.0 kg, a loss of 1.4 kg; dog #500 weighed 13.2 kg, a gain of 0.4 kg. • 5. […] The pancreatic native polyamine pools (most especially SPD) were markedly diminished compared to untreated control tissue: [SPM]control=3,985 μm v. [SPM10-days post-treatment=2,548 μm (64% of control) [SPD]control=2,820 μm v [SPD]10-days post-treatment=721 μm (25.6% of control) • 6. Dog #468 was bright, alert and responsive until day thirteen of drug administration. […] The dog was fed boiled chicken and rice, as well as Nutrical (a caloric supplement) and cat food and was slowly weaned back to regular dog food. Frank and/or occult blood was found in the dog's stool until about 17-days post-drug. • 7. Dog #500 was bright, alert and responsive throughout the experiment. […] However, stool consistency had normalized by one week post-drug. • 8. […] The inability to digest fats was confirmed when this test was repeated and the fatty meal was supplemented with Viokase (a pancreatic enzyme supplement). […] (2.15 mg/kg every 12 hours) for 13 days • Route: subcutaneously • 1. Dogs #440 and 476 were given (S,S)— (HO)2DEHSPM subcutaneously twice daily for 13 days. • […]. They were fed Purina Dog Chow ad libitum and given free access to water. • 3. At the start of the experiment, dog #440 weighed 11.8 kg.
Two animals were also treated with DEHSPM at a dose equimolar to the (HO)2DEHSPM dosage and sacrificed at 1- and 75-days after the final treatment. […]

exocrine pancreas = assay: Beagle study Part A: long-term toxicity and pancreatic function after (R,R)-(HO)2DEHSPM
Description: (§2) Five male beagles approximately 6-8 months of age were obtained from Harlan Sprague Dawley. They were provided with food and water ad libitum and were allowed to acclimate to their new surroundings for two weeks. The animals were weighed prior to starting drug administration and were weighed once per week during the drug dosing period. A CBC and chemistry panel were performed every 1-2 weeks. The drug study was performed in two stages. In the first phase, three animals were given the drug at 2.15 mg/kg/day (dogs #516, 518 and 526). In the second phase, the other two dogs were given the drug at 4.3 mg/kg/day (dogs #490 and 494). In both experiments, the daily drug dose was divided and administered twice daily at 12-hour intervals.
(§3) The results of the long-term washout and subsequent toxicity of the (R,R)—(HO)2DEHSPM are summarized. Briefly, the drug was initially thought to be well tolerated at the 2.15 mg/kg/day dose. In order to compare the long-term washout of the (HO)2DEHSPM as compared to DEHSPM, it was decided not to sacrifice the animal (#516) until 75-days post-drug. […] Chronic pancreatitis or intestinal malabsorption was suspected. […] Inasmuch as the dog was imminently scheduled for sacrifice, no treatment was initiated. At necropsy 75-days post-drug, there was little, if any, abdominal fat and the animal's pancreas was atrophied as described below.
(§4) However, approximately 55-60 days post-drug, it was noted that although the dogs in the 4.3 mg/kg/day group (#490 and 494) were eating well and were bright, alert and responsive, they began losing weight (2 kg). […] In order to further confirm the exocrine pancreatic insufficiency, additional experiments were performed.
as §1

[2] = as above; conditions: for SGPT / alkaline phosphatase: approximately 60-days post-drug
Description: as §2, §3, §4, §1

[3] = dog #516, 2.15 mg/kg/day, approximately two months post-drug
[4] = dogs #490 and 494, 4.3 mg/kg/day, approximately 55-60 days post-drug

For `CCNCC[C@@H](O)CNCCCCNC[C@H](O)CCNCC.Cl.Cl.Cl.Cl` [(R,R)-(HO)2DEHSPM, N^1,N^14-Diethyl-3(R) 12(R)-dihydroxyhomospermine tetrahydrochloride], which “liver concentration of drug (parent+metabolite)” value ([1]; 10-days post-drug) is on record?
Its value is 500 μm.

What about the “pancreatic concentration of drug (parent+metabolite)” value ([1]; 10-days post-drug) of the same compound?
The value was “exceeded 1,000 μm”.

And the “[SPD] in pancreas” value ([1]; 10-days post-treatment)?
The value was 721 μm.

And the “[SPD] in pancreas, % of control” value ([1]; 10-days post-treatment)?
The value was 25.6 % of control.

And the “[SPM] in pancreas” value ([1]; 10-days post-treatment)?
The value was 2,548 μm.

What about the “[SPM] in pancreas, % of control” value ([1]; 10-days post-treatment) of the same compound?
Its value is 64 % of control.

What about the “[SPD] in pancreas” value ([1]; 52-days post-treatment) of the same compound?
Its value is 156 μm.

And the “[SPD] in pancreas, % of control” value ([1]; 52-days post-treatment)?
The value was 5.5 % of control.

And the “[SPM] in pancreas” value ([1]; 52-days post-treatment)?
The value was 860 μm.

What about the “[SPM] in pancreas, % of control” value ([1]; 52-days post-treatment) of the same compound?
The value was 21.6 % of control.

What about the “native polyamine levels in pancreas” value ([1]; 75-, 78-, 88- and 92-days post-treatment) of the same compound?
Its value is “stabilized, but at a much lower level than the control pancreas”.

And the “drug remaining in pancreas” value ([1]; 75-, 88- and 92-day post-treatment samples)?
The value was “almost completely washed out”.

And the “total drug concentration (parent+metabolite) in pancreas” value ([1]; at necropsy (52-days post-treatment) vs 10-days post-treatment)?
The value was “remained virtually unchanged”.

And the pancreas at necropsy (exocrine pancreas; 75-, 78-, 88- and 92-days post-treatment, all cases)?
Its pancreas at necropsy is “Severe atrophy”.

What about the “histopathology of pancreatic sample” value (exocrine pancreas; 75-days post-treatment sample) of the same compound?
The value was “moderate to severe pancreatitis”.

What about the “trypsin-like immunoreactivity (TLI)” value (exocrine pancreas; both dogs #490 and 494, 4.3 mg/kg/day, throughout Viokase and post-Viokase periods) of the same compound?
Its value is “below 2.0 ng/ml”.

And the “serum trypsin-like immunoreactivity test” value (exocrine pancreas; dog #516, 2.15 mg/kg/day)?
Its value is “confirmed the presence of exocrine pancreatic insufficiency”.

And the pancreas at necropsy (exocrine pancreas; dog #516, 2.15 mg/kg/day, 75-days post-drug)?
The pancreas at necropsy was “atrophied”.

And the body weight (exocrine pancreas; [3])?
Its body weight is “begun losing weight”.

And the “fecal check (fat in stool)” value (exocrine pancreas; [3])?
Its value is “large amount of fat”.

And the “qualitative fecal fat and trypsin-like immunoreactivity” value (exocrine pancreas; dogs #490 and 494, 4.3 mg/kg/day)?
Its value is “confirmed the presence of exocrine pancreatic insufficiency”.

And the weight loss (exocrine pancreas; [4])?
The weight loss was 2 kg.

What about the pancreas at necropsy (exocrine pancreas; dogs #490 and 494, 4.3 mg/kg/day, one week after Viokase ceased) of the same compound?
The pancreas at necropsy was “severely atrophied”.

What about the “glucose levels (endocrine functionality)” value (exocrine pancreas; dogs #490 and 494, 4.3 mg/kg/day, throughout the experiment) of the same compound?
The value was “normal”.

What about the SGPT ([2]; dog #490, 4.3 mg/kg/day) of the same compound?
Its SGPT is 1108 U/L.

And the alkaline phosphatase ([2]; dog #490, 4.3 mg/kg/day)?
Its alkaline phosphatase is 542 U/L.

What about the SGPT ([2]; dog #494, 4.3 mg/kg/day) of the same compound?
Its SGPT is 776 U/L.

What about the alkaline phosphatase ([2]; dog #494, 4.3 mg/kg/day) of the same compound?
The alkaline phosphatase was 436 U/L.

What about the “SGPT (routine chemistry panel)” value [2, 3] of the same compound?
The value was “elevated”.

What about the “SGPT (blood chemistries)” value [2, 4] of the same compound?
Its value is “elevated”.
